Reference: patent US20230391768A2, “IMIDAZOPYRIDINE DERIVATIVES AND AZA-IMIDAZOPYRIDINE DERIVATIVES AS JANUS KINASE 2 INHIBITORS AND USES THEREOF” (Dana-Farber Cancer Institute, Inc., priority 2018, published 2023)

How the values were obtained:
Assay in all cases: KINOMEscan
Assay type in all cases: binding
Settings in all cases: read-out: percent of control
[1] = target: BRK (Homo sapiens (Human), UniProt Q13882)
Protocol: (§1) In vitro profiling of Compound I-2 (1 μM) was performed using the DiscoveRx KINOMEscan® platform.

[2] = target: ZAP70 (Homo sapiens (Human), UniProt P43403)
Protocol: as §1

[3] = target: DRAK1 (Homo sapiens (Human), UniProt Q9UEE5)
Protocol: as §1

[4] = target: MST2 (Homo sapiens (Human), UniProt Q13188)
Protocol: as §1

[5] = target: GCN2(Kin.Dom.2,S808G) (Homo sapiens (Human), UniProt Q9P2K8, S808G)
Protocol: as §1

[6] = target: GSK3B (Homo sapiens (Human), UniProt P49841)
Protocol: as §1

[7] = target: FLT3 (R834Q) (Homo sapiens (Human), UniProt P36888, R834Q)
Protocol: as §1

[8] = target: PRP4 (Homo sapiens (Human), UniProt Q13523)
Protocol: as §1

[9] = target: AURKB (Homo sapiens (Human), UniProt Q96GD4)
Protocol: as §1

[10] = target: MAP4K2 (Homo sapiens (Human), UniProt Q12851)
Protocol: as §1

[11] = target: ERK1 (Homo sapiens (Human), UniProt P27361)
Protocol: as §1

[12] = target: MAK (Homo sapiens (Human), UniProt P20794)
Protocol: as §1

[13] = target: MUSK (Homo sapiens (Human), UniProt O15146)
Protocol: as §1

[14] = target: TAK1 (Homo sapiens (Human), UniProt O43318)
Protocol: as §1

[15] = target: PAK1 (Homo sapiens (Human), UniProt Q13153)
Protocol: as §1

[16] = target: PIK3CD (Homo sapiens (Human), UniProt O00329)
Protocol: as §1

[17] = target: TGFBR2 (Homo sapiens (Human), UniProt P37173)
Protocol: as §1

[18] = target: WNK3 (Homo sapiens (Human), UniProt Q9BYP7)
Protocol: as §1

[19] = target: HPK1 (Homo sapiens (Human), UniProt Q92918)
Protocol: as §1

[20] = target: HIPK4 (Homo sapiens (Human), UniProt Q8NE63)
Protocol: as §1

[21] = target: PIK3C2B (Homo sapiens (Human), UniProt O00750)
Protocol: as §1

[22] = target: EPHB3 (Homo sapiens (Human), UniProt P54753)
Protocol: as §1

[23] = target: ERK4 (Homo sapiens (Human), UniProt P31152)
Protocol: as §1

[24] = target: PLK3 (Homo sapiens (Human), UniProt Q9H4B4)
Protocol: as §1

[25] = target: CSNK1E (Homo sapiens (Human), UniProt P49674)
Protocol: as §1

[26] = target: RIOK3 (Homo sapiens (Human), UniProt O14730)
Protocol: as §1

[27] = target: PIK3CA (Homo sapiens (Human), UniProt P42336)
Protocol: as §1

[28] = target: CSNK1G3 (Homo sapiens (Human), UniProt Q9Y6M4)
Protocol: as §1

[29] = target: AXL (Homo sapiens (Human), UniProt P30530)
Protocol: as §1

[30] = target: AKT1 (Homo sapiens (Human), UniProt P31749)
Protocol: as §1

[31] = target: RIPK1 (Homo sapiens (Human), UniProt Q13546)
Protocol: as §1

[32] = target: PCTK1 (Homo sapiens (Human), UniProt Q00536)
Protocol: as §1

[33] = target: EGFR(L858R, T790M) (Homo sapiens (Human), UniProt P00533, L858R/T790M)
Protocol: as §1

[34] = target: MARK3 (Homo sapiens (Human), UniProt P27448)
Protocol: as §1

[35] = target: RPS6KA4 (Kin.Dom.1-N-terminal) (Homo sapiens (Human), UniProt O75676)
Protocol: as §1

[36] = target: FLT4 (Homo sapiens (Human), UniProt P35916)
Protocol: as §1

[37] = target: RAF1 (Homo sapiens (Human), UniProt P04049)
Protocol: as §1

[38] = target: MYLK2 (Homo sapiens (Human), UniProt Q9H1R3)
Protocol: as §1

[39] = target: CAMK2A (Homo sapiens (Human), UniProt Q9UQM7)
Protocol: as §1

AKT1, sequence (P31749 whole entry): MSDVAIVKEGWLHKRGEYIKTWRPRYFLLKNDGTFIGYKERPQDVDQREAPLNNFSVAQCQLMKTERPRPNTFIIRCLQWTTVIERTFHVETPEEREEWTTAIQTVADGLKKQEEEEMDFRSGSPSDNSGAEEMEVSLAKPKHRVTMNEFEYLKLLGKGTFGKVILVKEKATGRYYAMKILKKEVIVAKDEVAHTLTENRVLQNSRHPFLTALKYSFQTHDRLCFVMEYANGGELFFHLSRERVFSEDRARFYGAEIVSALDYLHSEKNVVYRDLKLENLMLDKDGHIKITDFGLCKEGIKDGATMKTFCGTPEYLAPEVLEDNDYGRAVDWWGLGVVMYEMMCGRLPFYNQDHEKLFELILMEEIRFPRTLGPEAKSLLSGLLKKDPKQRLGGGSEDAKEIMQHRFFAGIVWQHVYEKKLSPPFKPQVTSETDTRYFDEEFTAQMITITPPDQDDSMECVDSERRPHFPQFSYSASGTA
CSNK1G3, sequence (Q9Y6M4 whole entry): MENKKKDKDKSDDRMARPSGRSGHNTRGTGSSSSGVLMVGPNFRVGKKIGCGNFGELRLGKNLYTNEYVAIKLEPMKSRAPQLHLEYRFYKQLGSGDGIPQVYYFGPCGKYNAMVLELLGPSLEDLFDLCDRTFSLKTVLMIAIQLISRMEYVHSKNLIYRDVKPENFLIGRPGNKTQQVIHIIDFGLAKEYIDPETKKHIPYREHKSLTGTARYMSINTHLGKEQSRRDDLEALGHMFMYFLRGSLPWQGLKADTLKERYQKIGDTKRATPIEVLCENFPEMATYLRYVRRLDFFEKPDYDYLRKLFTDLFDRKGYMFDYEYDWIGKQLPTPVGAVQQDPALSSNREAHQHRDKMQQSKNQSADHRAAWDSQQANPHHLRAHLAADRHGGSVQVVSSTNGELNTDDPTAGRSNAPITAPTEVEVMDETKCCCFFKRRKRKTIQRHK
PIK3CA, sequence (P42336 whole entry): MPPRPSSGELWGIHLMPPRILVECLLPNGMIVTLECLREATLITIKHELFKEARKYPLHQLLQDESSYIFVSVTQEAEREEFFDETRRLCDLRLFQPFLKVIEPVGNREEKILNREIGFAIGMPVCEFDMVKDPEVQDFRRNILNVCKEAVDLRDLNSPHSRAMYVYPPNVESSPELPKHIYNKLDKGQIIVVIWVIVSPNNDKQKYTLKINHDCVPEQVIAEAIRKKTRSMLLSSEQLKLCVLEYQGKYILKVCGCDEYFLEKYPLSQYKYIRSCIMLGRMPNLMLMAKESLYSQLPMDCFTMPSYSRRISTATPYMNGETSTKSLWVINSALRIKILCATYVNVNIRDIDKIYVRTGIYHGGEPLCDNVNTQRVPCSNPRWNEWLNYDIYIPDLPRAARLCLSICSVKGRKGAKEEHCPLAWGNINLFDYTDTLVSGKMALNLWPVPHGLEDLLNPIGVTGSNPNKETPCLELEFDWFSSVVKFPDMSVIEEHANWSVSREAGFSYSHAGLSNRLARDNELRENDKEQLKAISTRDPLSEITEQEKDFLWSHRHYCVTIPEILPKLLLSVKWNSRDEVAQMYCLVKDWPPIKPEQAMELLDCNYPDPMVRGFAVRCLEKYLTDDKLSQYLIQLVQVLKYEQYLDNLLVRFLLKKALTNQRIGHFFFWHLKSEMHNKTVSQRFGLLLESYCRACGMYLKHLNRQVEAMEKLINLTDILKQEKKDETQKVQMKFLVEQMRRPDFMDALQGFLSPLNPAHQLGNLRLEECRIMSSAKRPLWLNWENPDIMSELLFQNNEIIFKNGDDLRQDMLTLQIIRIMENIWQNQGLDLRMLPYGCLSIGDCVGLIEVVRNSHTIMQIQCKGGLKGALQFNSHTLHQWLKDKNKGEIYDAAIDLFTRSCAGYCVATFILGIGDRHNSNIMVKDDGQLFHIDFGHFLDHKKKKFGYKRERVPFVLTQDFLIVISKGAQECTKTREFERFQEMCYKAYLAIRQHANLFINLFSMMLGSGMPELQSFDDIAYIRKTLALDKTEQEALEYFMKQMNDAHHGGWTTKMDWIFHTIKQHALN
DRAK1, sequence (Q9UEE5 whole entry): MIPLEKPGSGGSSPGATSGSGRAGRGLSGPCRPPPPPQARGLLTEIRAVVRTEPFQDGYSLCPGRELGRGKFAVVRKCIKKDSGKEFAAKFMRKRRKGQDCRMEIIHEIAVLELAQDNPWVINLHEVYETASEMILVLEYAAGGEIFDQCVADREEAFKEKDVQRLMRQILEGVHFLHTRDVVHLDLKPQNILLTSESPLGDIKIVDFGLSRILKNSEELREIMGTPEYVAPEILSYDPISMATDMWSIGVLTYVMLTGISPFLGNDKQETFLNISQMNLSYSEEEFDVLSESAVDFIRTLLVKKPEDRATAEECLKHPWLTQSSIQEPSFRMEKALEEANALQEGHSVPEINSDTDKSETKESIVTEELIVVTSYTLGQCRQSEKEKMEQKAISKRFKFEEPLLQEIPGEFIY
AURKB, sequence (Q96GD4 whole entry): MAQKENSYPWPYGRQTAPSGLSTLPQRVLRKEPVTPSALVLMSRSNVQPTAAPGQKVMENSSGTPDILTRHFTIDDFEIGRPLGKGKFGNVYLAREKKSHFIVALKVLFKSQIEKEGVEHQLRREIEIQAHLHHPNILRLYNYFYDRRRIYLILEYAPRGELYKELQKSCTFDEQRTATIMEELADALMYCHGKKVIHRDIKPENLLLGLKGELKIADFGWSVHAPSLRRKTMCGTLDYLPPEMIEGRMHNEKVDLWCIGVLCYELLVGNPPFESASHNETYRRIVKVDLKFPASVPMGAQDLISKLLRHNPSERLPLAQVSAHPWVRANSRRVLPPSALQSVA
MARK3, sequence (P27448 whole entry): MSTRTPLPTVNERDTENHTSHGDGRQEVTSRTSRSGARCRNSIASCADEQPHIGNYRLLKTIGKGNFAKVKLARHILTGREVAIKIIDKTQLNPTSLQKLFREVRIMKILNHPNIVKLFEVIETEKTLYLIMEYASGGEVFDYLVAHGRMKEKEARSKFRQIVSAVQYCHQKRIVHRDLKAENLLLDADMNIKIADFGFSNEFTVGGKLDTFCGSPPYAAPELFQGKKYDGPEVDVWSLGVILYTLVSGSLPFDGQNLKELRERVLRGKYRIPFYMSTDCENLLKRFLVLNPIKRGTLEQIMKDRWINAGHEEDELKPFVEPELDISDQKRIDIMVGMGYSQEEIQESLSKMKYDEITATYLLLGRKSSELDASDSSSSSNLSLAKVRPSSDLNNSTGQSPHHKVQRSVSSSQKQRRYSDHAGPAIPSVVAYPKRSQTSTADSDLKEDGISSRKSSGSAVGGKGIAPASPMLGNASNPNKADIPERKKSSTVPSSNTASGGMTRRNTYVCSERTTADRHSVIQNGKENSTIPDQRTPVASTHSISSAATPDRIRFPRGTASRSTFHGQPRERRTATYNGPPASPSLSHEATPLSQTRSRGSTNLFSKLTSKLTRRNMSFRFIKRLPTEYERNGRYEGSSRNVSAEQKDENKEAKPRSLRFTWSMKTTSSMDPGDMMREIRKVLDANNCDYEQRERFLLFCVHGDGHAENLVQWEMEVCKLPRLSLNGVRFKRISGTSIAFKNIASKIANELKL
PLK3, sequence (Q9H4B4 whole entry): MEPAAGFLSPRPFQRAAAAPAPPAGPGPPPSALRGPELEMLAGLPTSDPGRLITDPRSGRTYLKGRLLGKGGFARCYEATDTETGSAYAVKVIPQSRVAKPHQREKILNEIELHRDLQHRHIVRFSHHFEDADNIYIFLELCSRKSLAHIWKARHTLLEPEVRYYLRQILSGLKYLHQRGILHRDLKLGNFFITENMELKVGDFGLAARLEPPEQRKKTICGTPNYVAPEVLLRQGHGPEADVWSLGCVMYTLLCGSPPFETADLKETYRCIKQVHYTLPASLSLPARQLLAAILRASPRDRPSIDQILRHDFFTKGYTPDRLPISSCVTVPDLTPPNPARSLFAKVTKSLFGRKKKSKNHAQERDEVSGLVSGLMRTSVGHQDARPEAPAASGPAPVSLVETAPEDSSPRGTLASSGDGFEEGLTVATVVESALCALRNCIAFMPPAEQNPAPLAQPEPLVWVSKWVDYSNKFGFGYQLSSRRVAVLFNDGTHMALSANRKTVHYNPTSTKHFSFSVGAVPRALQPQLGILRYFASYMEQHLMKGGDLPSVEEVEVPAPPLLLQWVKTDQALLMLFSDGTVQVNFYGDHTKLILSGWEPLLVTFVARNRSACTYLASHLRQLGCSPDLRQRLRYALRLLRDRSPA
HIPK4, sequence (Q8NE63 whole entry): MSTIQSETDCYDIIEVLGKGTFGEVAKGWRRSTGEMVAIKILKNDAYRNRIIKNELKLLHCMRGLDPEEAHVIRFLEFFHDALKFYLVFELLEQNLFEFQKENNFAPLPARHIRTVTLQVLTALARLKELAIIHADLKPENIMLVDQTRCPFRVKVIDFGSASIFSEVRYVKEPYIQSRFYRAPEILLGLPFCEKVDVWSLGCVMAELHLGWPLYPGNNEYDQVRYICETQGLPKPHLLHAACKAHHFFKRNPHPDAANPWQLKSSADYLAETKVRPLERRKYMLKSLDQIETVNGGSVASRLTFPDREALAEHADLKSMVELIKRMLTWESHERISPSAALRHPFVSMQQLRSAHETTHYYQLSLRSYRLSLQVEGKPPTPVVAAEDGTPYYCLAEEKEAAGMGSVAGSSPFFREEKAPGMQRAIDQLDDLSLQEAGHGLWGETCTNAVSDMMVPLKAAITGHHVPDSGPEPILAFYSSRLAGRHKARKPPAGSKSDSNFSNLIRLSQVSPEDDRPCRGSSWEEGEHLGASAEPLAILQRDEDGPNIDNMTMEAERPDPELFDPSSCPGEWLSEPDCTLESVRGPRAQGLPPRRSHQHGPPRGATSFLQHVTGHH

CCN1CCN(Cc2cc(NC(=O)c3ccc(C)c(-c4ccc5nc(NC(=O)C6CC6)cn5n4)c3)cc(C(F)(F)F)c2)CC1 [Compound I-2, 3-(2-(cyclopropanecarboxamido)imidazo[1,2-b]pyridazin-6-yl)-N-(3-((4-ethylpiperazin-1-yl)methyl)-5-(trifluoromethyl)phenyl)-4-methylbenzamide]
remaining binding at 1 µM [1]: 100%
remaining binding at 1 µM [2]: 66%
remaining binding at 1 µM [3]: 100%
remaining binding at 1 µM [4]: 50%
remaining binding at 1 µM [5]: 82%
remaining binding at 1 µM [6]: 93%
remaining binding at 1 µM [7]: 1.5%
remaining binding at 1 µM [8]: 87%
remaining binding at 1 µM [9]: 97%
remaining binding at 1 µM [10]: 0.05%
remaining binding at 1 µM [11]: 95%
remaining binding at 1 µM [12]: 11%
remaining binding at 1 µM [13]: 0.6%
remaining binding at 1 µM [14]: 1.1%
remaining binding at 1 µM [15]: 81%
remaining binding at 1 µM [16]: 100%
remaining binding at 1 µM [17]: 90%
remaining binding at 1 µM [18]: 92%
remaining binding at 1 µM [19]: 0.1%
remaining binding at 1 µM [20]: 32%
remaining binding at 1 µM [21]: 100%
remaining binding at 1 µM [22]: 30%
remaining binding at 1 µM [23]: 96%
remaining binding at 1 µM [24]: 100%
remaining binding at 1 µM [25]: 86%
remaining binding at 1 µM [26]: 100%
remaining binding at 1 µM [27]: 78%
remaining binding at 1 µM [28]: 96%
remaining binding at 1 µM [29]: 2.1%
remaining binding at 1 µM [30]: 90%
remaining binding at 1 µM [31]: 0.45%
remaining binding at 1 µM [32]: 16%
remaining binding at 1 µM [33]: 100%
remaining binding at 1 µM [34]: 94%
remaining binding at 1 µM [35]: 50%
remaining binding at 1 µM [36]: 0.05%
remaining binding at 1 µM [37]: 13%
remaining binding at 1 µM [38]: 92%
remaining binding at 1 µM [39]: 100%

CCN1CCN(Cc2cc(NC(=O)c3ccc(C)c(-c4ccc5nc(NC(=O)C6CC6)cn5c4)c3)cc(C(F)(F)F)c2)CC1 [Compound I-6, 3-(2-(cyclopropanecarboxamido)imidazo[1,2-a]pyridin-6-yl)-N-(3-((4-ethylpiperazin-1-yl)methyl)-5-(trifluoromethyl)phenyl)-4-methylbenzamide]
remaining binding at 1 µM [1]: 91%
remaining binding at 1 µM [2]: 30%
remaining binding at 1 µM [3]: 94%
remaining binding at 1 µM [4]: 97%
remaining binding at 1 µM [5]: 97%
remaining binding at 1 µM [6]: 100%
remaining binding at 1 µM [7]: 2.1%
remaining binding at 1 µM [8]: 100%
remaining binding at 1 µM [9]: 80%
remaining binding at 1 µM [10]: 0.2%
remaining binding at 1 µM [11]: 100%
remaining binding at 1 µM [12]: 22%
remaining binding at 1 µM [13]: 2.1%
remaining binding at 1 µM [14]: 2.7%
remaining binding at 1 µM [15]: 78%
remaining binding at 1 µM [16]: 69%
remaining binding at 1 µM [17]: 86%
remaining binding at 1 µM [18]: 83%
remaining binding at 1 µM [19]: 0.75%
remaining binding at 1 µM [20]: 55%
remaining binding at 1 µM [21]: 100%
remaining binding at 1 µM [22]: 35%
remaining binding at 1 µM [23]: 100%
remaining binding at 1 µM [24]: 100%
remaining binding at 1 µM [25]: 93%
remaining binding at 1 µM [26]: 90%
remaining binding at 1 µM [27]: 96%
remaining binding at 1 µM [28]: 92%
remaining binding at 1 µM [29]: 3.9%
remaining binding at 1 µM [30]: 90%
remaining binding at 1 µM [31]: 0.75%
remaining binding at 1 µM [32]: 28%
remaining binding at 1 µM [33]: 59%
remaining binding at 1 µM [34]: 95%
remaining binding at 1 µM [35]: 66%
remaining binding at 1 µM [36]: 0.3%
remaining binding at 1 µM [37]: 18%
remaining binding at 1 µM [38]: 83%
remaining binding at 1 µM [39]: 100%
